Data on 31 compounds can be found in US7335632B2, “Beta-secretase inhibitors and methods of use thereof” (CoMentis, Inc., priority 2001, dated 2008).

What all share (assay type): biochemical
Test [1] addresses T1, memapsin 1 (Homo sapiens, UniProt Q9Y5Z0).
T1 sequence (Q9Y5Z0 63-518): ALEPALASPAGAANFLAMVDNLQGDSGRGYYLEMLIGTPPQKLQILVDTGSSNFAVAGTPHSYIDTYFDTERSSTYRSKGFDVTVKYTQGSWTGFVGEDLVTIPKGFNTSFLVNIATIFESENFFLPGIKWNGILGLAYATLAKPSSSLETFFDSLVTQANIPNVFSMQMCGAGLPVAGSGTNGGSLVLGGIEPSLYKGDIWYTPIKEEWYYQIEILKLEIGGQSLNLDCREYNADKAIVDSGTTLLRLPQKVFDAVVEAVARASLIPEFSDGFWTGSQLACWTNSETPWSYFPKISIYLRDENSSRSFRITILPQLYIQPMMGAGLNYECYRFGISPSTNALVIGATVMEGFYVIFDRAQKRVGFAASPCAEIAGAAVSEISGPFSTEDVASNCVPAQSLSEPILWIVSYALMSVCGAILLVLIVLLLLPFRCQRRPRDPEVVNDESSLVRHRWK
Briefly: Inhibition of memapsin 1 beta-secretase activity (substrate peptide […], MALDI-TOF). The settings on record: pH 4.1, 37 degrees C., substrate NH3-ELDLAVEFWHDR-CO2, MALDI-TOF; read-out: M1 Ki.

Test [2] deals with memapsin 2 (Homo sapiens, UniProt P56817). Nature of the test: Inhibition of memapsin 2 beta-secretase activity toward fluorogenic substrate FS-2. The settings on record: pH 4, 37° C., 20 minutes pre-incubation, substrate FS-2, tight-binding model; read-out: M2 Ki. As to the method:
Potency of compounds were determined by measurement of their inhibition of memapsin 2 activity toward a fluorescent substrate. […] Briefly, assays were performed at pH 4, 37° C., by pre-incubation of memapsin 2 enzyme with compound for 20 minutes. Activity measure was initiated by addition of a fluorogenic substrate FS-2 (Bachem Americas, Torrance, Calif.). Fluorescent signal increase over time was measured as a rate of hydrolysis of the peptide substrate.

The target in test [3] is Cathepsin D (Homo sapiens, UniProt P07339). Nature of the test: Inhibition of cathepsin D activity (substrate peptide […], MALDI-TOF). Conditions: pH 4.1, 37 degrees C., read-out: Cath D Ki.
Cathepsin D, sequence (P07339 65-412, species assumed): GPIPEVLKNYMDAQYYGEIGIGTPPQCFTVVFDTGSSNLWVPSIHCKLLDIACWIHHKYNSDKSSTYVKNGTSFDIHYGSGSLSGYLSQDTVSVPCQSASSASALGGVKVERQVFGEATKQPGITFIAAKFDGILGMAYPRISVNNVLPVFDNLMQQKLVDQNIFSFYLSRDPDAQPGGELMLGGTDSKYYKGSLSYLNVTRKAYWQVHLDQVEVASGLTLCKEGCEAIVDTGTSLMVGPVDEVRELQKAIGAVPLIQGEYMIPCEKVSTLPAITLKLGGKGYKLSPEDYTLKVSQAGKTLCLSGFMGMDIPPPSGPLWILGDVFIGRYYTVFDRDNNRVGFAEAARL
Setting [4] is: substrate NH3-[…]-CO2, MALDI-TOF.

Where two headings read alike, the source gives them in different places.

memapsin 2, sequence (P56817 46-501): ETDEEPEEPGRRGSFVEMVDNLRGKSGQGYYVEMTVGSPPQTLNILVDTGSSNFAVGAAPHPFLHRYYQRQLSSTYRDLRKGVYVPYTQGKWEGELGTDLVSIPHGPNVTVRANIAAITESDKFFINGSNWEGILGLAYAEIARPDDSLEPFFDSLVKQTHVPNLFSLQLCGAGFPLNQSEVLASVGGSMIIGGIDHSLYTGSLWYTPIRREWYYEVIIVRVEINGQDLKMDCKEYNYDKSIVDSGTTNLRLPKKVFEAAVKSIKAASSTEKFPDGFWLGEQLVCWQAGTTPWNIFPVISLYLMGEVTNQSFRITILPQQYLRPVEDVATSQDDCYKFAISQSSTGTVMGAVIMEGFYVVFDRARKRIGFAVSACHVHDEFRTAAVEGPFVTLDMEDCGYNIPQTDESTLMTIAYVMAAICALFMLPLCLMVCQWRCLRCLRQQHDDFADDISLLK

For orientation: Ki means a dissociation constant, usually derived from enzyme kinetics or from competition with a known ligand. On to `CSC[C@H](NC(=O)OCc1nc(C)cs1)C(=O)N[C@H](CC(C)C)[C@@H](O)C[C@@H](C)C(=O)N[C@@H](c1ncc[nH]1)C(C)C` [Structure 80], for which the Ki in test [1] is above 1000 nM; in test [2], above 1000 nM; in test [3] (setting [4]), 100 to 1000 nM.
On to `Cc1noc(COC(=O)N[C@@H](CS(C)(=O)=O)C(=O)N[C@H](CC(C)C)[C@@H](O)C[C@@H](C)C(=O)N[C@@H](C(=O)NCC(C)C)C(C)C)n1` [Structure 69], for which the Ki in test [1], in test [2] and in test [3] (setting [4]) was 100 to 1000 nM in each case.
Consider `CSC[C@H](NC(=O)OCc1nc(C)oc1C)C(=O)N[C@H](CC(C)C)[C@@H](O)C[C@@H](C)C(=O)N[C@@H](C(=O)OCc1ccccc1)C(C)C` [Structure 84], for which the values for the Ki in test [1], in test [2] and in test [3] (setting [4]) were above 1000 nM, above 1000 nM and 100 to 1000 nM, respectively.
Take `C=CCSC[C@H](NC(=O)CCn1nc(C)cc1C)C(=O)N[C@@H](CC(C)C)[C@@H](O)C[C@@H](C)C(=O)N[C@H](C(=O)NCC(C)C)C(C)C` [Structure 10]: the inhibition constant Ki in test [1], in test [2] and in test [3] (setting [4]) was below 100 nM throughout.
Take `Cc1csc(COC(=O)N[C@@H](CS(C)(=O)=O)C(=O)N[C@H](CC(C)C)[C@@H](O)C[C@@H](C)C(=O)N[C@@H](C(=O)NCC(C)C)C2CCCCC2)n1` [Structure 33]: the inhibition constant Ki was 100 to 1000 nM in test [1], 100 to 1000 nM in test [2] and above 1000 nM in test [3] (setting [4]).
In the case of `CC(C)CNC(=O)[C@H](NC(=O)[C@H](C)C[C@H](O)[C@@H](CC(C)C)NC(=O)[C@H](CS(C)(=O)=O)NC(=O)OCc1ccn(C)n1)C(C)C` [Structure 20], the Ki in test [1], in test [2] and in test [3] (setting [4]) was 100 to 1000 nM each time.
As to `CSC[C@H](NC(=O)OCc1coc(C)n1)C(=O)N[C@H](CC(C)C)[C@@H](O)C[C@@H](C)C(=O)N[C@@H](C(=O)NCC(C)C)C(C)C` [Structure 27], the inhibition constant Ki in test [1] is 100 to 1000 nM; in test [2] it was 100 to 1000 nM; in test [3] (setting [4]) it was below 100 nM.
As for `CSC[C@H](NC(=O)CCc1nc(C)oc1C)C(=O)N[C@H](CC(C)C)[C@@H](O)C[C@@H](C)C(=O)N[C@@H](C(=O)NCC(C)C)C(C)C` [Structure 41], the Ki in test [1] is 100 to 1000 nM; in test [2], below 100 nM; in test [3] (setting [4]) it was below 100 nM.
Turning to `CSC[C@H](NC(=O)OCc1nc(C)cs1)C(=O)N[C@H](CC(C)C)[C@@H](O)C[C@@H](C)C(=O)N[C@H](CN(C)C)C(=O)NC(C)C` [Structure 81], the inhibition constant (Ki) in test [1], in test [2] and in test [3] (setting [4]) was above 1000 nM in each case.
As to `COCSC[C@H](NC(=O)CCn1nc(C)cc1C)C(=O)N[C@H](CC(C)C)[C@@H](O)C[C@@H](C)C(=O)N[C@@H](C(=O)NCC(C)C)C(C)C` [Structure 14], the Ki in test [1], in test [2] and in test [3] (setting [4]) was below 100 nM each time.
With `CSC[C@H](NC(=O)OCc1nc(C)cs1)C(=O)N[C@H](Cc1ccccc1)[C@@H](O)C[C@@H](C)C(=O)N[C@@H](C(=O)NCC(C)C)C(C)C` [Structure 52], the Ki in test [1] was 100 to 1000 nM; in test [2] it was below 100 nM; in test [3] (setting [4]), below 100 nM.
Consider `Cc1csc(COC(=O)N[C@@H](CS(C)(=O)=O)C(=O)N[C@H](CC(C)C)[C@@H](O)C[C@@H](C)C(=O)N[C@@H](C(=O)NCc2ccncc2)C(C)C)n1` [Structure 45], for which the Ki in test [1] was above 1000 nM; in test [2], 100 to 1000 nM; in test [3] (setting [4]) it was 100 to 1000 nM.
`Cc1csc(COC(=O)N[C@@H](CS(C)(=O)=O)C(=O)N[C@@H](CC(C)C)[C@@H](O)C[C@@H](C)C(=O)NN(C)S(C)(=O)=O)n1` [Structure 63]: the Ki in test [1], in test [2] and in test [3] (setting [4]) was above 1000 nM each time.
As to `CCS(=O)(=O)C[C@H](NC(=O)OCc1nc(C)c[s+]1[O-])C(=O)N[C@H](CC(C)C)[C@@H](O)C[C@@H](C)C(=O)N[C@@H](C(=O)NCC(C)C)C(C)C` (stereo partly drawn) [Structure 24], the Ki in test [1] is 100 to 1000 nM; in test [2], above 1000 nM; in test [3] (setting [4]), below 100 nM.
Consider `Cc1nc(COC(=O)N[C@@H](CS(C)(=O)=O)C(=O)N[C@H](CC(C)C)[C@@H](O)C[C@@H](C)C(=O)N[C@@H](C(=O)NCC(C)C)C(C)C)cs1` [Structure 26], for which, in test [1], the Ki lay within 100 to 1000 nM.
On to `Cc1nc(CCC(=O)N[C@@H](CS(C)(=O)=O)C(=O)N[C@H](CC(C)C)[C@@H](O)C[C@@H](C)C(=O)N[C@@H](C(=O)NCC(C)C)C(C)C)c(C)o1` [Structure 44], for which the Ki in test [1] was below 100 nM; in test [2], below 100 nM; in test [3] (setting [4]) it was 100 to 1000 nM.
With `Cc1nc(COC(=O)N[C@@H](CS(C)(=O)=O)C(=O)N[C@H](CC(C)C)[C@@H](O)C[C@@H](C)C(=O)NCC(C)C)c(C)o1` [Structure 42], the Ki in test [1] and in test [2] was above 1000 nM throughout.
For `CSC[C@H](NC(=O)OCc1noc(C)n1)C(=O)N[C@H](CC(C)C)[C@@H](O)C[C@@H](C)C(=O)N[C@@H](C(=O)NCC(C)C)C(C)C` [Structure 61], the Ki was above 1000 nM in test [1], 100 to 1000 nM in test [2] and below 100 nM in test [3] (setting [4]).
The corresponding values for `Cc1nc(COC(=O)N[C@@H](CS(C)(=O)=O)C(=O)N[C@H](CC(C)C)[C@@H](O)C[C@@H](C)C(=O)N[C@@H](C(=O)NCC(C)C)C(C)C)cs1` [Structure 25] are below 100 nM, 100 to 1000 nM and 100 to 1000 nM.
The corresponding values for `Cc1nc(COC(=O)N[C@@H](CS(C)(=O)=O)C(=O)N[C@H](CC(C)C)[C@@H](O)C[C@@H](C)C(=O)N[C@@H](C(=O)OCc2ccccc2)C(C)C)c(C)o1` [Structure 85] are 100 to 1000 nM, 100 to 1000 nM and 100 to 1000 nM.
As for `CSC[C@H](NC(=O)OCc1nc(C)oc1C)C(=O)N[C@@H](CC(C)C)[C@@H](O)C[C@@H](C)C(=O)N[C@H](C(=O)Nc1nccs1)C(C)C` [Structure 96], the Ki was 100 to 1000 nM in test [1], 100 to 1000 nM in test [2] and below 100 nM in test [3] (setting [4]).
Turning to `Cc1nc(COC(=O)N[C@@H](CS(C)(=O)=O)C(=O)N[C@H](CC(C)C)[C@@H](O)C[C@@H](C)C(=O)N[C@@H](C(=O)NCC(C)C)C(C)C)no1` [Structure 62], the inhibition constant (Ki) in test [1] is above 1000 nM; in test [2], above 1000 nM; in test [3] (setting [4]), 100 to 1000 nM.
`CSC[C@H](NC(=O)CC(C)n1nc(C)cc1C)C(=O)N[C@@H](CC(C)C)[C@@H](O)C[C@@H](C)C(=O)N[C@H](C(=O)NCC(C)C)C(C)C` (stereo partly drawn) [Structure 11]: the figures for the Ki in test [1], in test [2] and in test [3] (setting [4]) were 100 to 1000 nM, above 1000 nM and below 100 nM, respectively.
The corresponding values for `COCS(=O)(=O)C[C@H](NC(=O)CCn1nc(C)cc1C)C(=O)N[C@H](CC(C)C)[C@@H](O)C[C@@H](C)C(=O)N[C@@H](C(=O)NCC(C)C)C(C)C` [Structure 15] are 100 to 1000 nM, 100 to 1000 nM and 100 to 1000 nM.
The corresponding values for `CSC[C@H](NC(=O)OCc1nccn1C)C(=O)N[C@@H](CC(C)C)[C@@H](O)C[C@@H](C)C(=O)N[C@@H](C(=O)NCC(C)C)C(C)C` [Structure 6] are below 100 nM, above 1000 nM and 100 to 1000 nM.
Consider `CSC[C@H](NC(=O)[C@@H](C)Cc1nc(C)cs1)C(=O)N[C@H](CC(C)C)[C@@H](O)C[C@@H](C)C(=O)N[C@@H](C(=O)NCC(C)C)C(C)C` [Structure 65], for which the Ki is below 100 nM in test [1]; below 100 nM in test [2]; below 100 nM in test [3] (substrate NH3-ELDLAVEFWHDR-CO2, MALDI-TOF).
For `CSC[C@H](NC(=O)OCc1csc(C)n1)C(=O)N[C@H](CC(C)C)[C@@H](O)C[C@@H](C)C(=O)N[C@@H](C(=O)NCC(C)C)C(C)C` [Structure 21], the Ki was 100 to 1000 nM in test [1], 100 to 1000 nM in test [2] and below 100 nM in test [3] (setting [4]).
For the compound `Cc1csc(COC(=O)N[C@@H](CS(C)(=O)=O)C(=O)N[C@H](CC(C)C)[C@@H](O)C[C@@H](C)C(=O)NCC2CCC(C(=O)OCc3ccccc3)CC2)n1` (stereo partly drawn) [Structure 82], the Ki in test [1] is above 1000 nM; in test [2], above 1000 nM; in test [3] (setting [4]) it was below 100 nM.
For `Cc1nc(COC(=O)N[C@@H](CS(C)(=O)=O)C(=O)N[C@H](CC(C)C)[C@@H](O)C[C@@H](C)C(=O)N[C@@H](C(=O)NCC(C)C)C(C)C)co1` [Structure 28], the Ki in test [1], in test [2] and in test [3] (setting [4]) was 100 to 1000 nM in each case.
Turning to `COc1ccc(C[C@H](NC(=O)[C@H](CS(C)(=O)=O)NC(=O)OCc2nc(C)oc2C)[C@@H](O)C[C@@H](C)C(=O)N[C@H](C(=O)NCC(C)C)C(C)C)cc1` [Structure 98], the figures for the Ki in test [1], in test [2] and in test [3] (setting [4]) were 100 to 1000 nM, above 1000 nM and below 100 nM, respectively.
As for `CSC[C@H](NC(=O)OCc1nc(C)cs1)C(=O)N[C@H](CC(C)C)[C@@H](O)C[C@@H](C)C(=O)NCC1CCC(C(=O)OCc2ccccc2)CC1` (stereo partly drawn) [Structure 76], the inhibitory constant (Ki) in test [1] is above 1000 nM; in test [2], above 1000 nM; in test [3] (setting [4]), below 100 nM.
